The values that follow are results of earlier work, collected in patent publication US7670624B2, “Gastrointestinal-specific multiple drug release system” (Astella Pharma Inc., priority 2004, dated 2010).

For this series the following is noted: in vivo.

Molecules are shown by their SMILES. Counter-ions that a name gives are not always drawn.

Regarding `CN(C)c1ccc(O)c2c1C[C@H]1C[C@H]3[C@H](N(C)C)C(O)=C(C(N)=O)C(=O)[C@@]3(O)C(O)=C1C2=O` [Minocycline hydrochloride], the t1/2 was 9.5 h. For the molecule `NC(N)=Nc1nc(CSCCC(N)=NS(N)(=O)=O)cs1` [Famotidine], the t1/2 was 3 h.
